For 22 molecules, activity results are on record in patent US8952003B2, “Sterol derivative” (Kyowa Hakko Kirin Co., Ltd, priority 2009, dated 2015).

In the test the test system is Rat adult neural stem cell line ANSC-7 cells. Nature of the test: Proliferation promoting activity on neural stem cells (Test Example 1). The test is classed as cell-based. The conditions noted are these: relative value, negative control (DMSO) = 100%, wells without cells = 0%, absorbance at 490 nm; for activity at 0.001 µM: at 1.0 nmol/L; for activity at 0.01 µM: at 10 nmol/L; for activity at 0.1 µM: at 100 nmol/L. The method, then:
Rat adult neural stem cell line ANSC-7 cells prepared by the method described in the following Reference Test Example 1 were suspended in assay medium at a density of 1.6×10^5 cells/mL; inoculated at 0.1 mL in a 96 well plate (manufactured by Costar) of which surface was coated with polyornithine and laminin; and cultured overnight at 37° C. under an atmosphere of 5% CO2. Thereafter, 50 μL of the culture supernatant was removed, and 50 μL of a test compound which was serially diluted with the assay medium to 2 times of the final concentration or DMSO (negative control) was added to each well. For the serial dilution of a test compound, non-specific adsorption was minimized by using ProteoSave 96 U plates (manufactured by SUMILON), siliconized 1.5 mL tubes (manufactured by Assist) and Pitarack siliconized tips (manufactured by Nacalai). After the culturing for 48 hours, 50 μL of the culture supernatant was replaced by 50 μL of the assay medium containing 0.1% bovine fetal serum. Furthermore, after the culturing for 48 hours, Living Cell Count Reagent SF (manufactured by Nacalai Tesque) was added at the volume of 10 μL per well to the medium. After the culturing for 3 hours at 37° C. in the incubator which was set at 5% CO2, the resulting solution was stirred for one minute and then the absorbance at 490 nm (control wavelength 655 nm) was measured by using Microplate Spectrophotometer Emax (manufactured by Molecular Devices). By regarding the measured value of well to which the cells were not inoculated as 0%, and the measured value of negative control as 100%, relative values in the test compound addition group were calculated.
After putting a 7-week-old Sprague Dawley Rat to sleep by ether anesthesia and subsequent decapitation, the skull was cut open from the parietal region to extract the brain. Under a microscope, tissues including circumventricular region were isolated from the extracted brain by using ophthalmic scissors and tweezers. The tissues including circumventricular region were cut into fragments of about 1 mm^3 using ophthalmic scissors and scalpels and then subjected to 30 minutes of digestion reaction at 37° C. in 5 mL of Hanks' buffer (HBSS buffer, manufactured by Invitrogen) containing 2.5 U/mL of papain, 250 U/mL of DNase (all manufactured by Worthington, Freehold, N.J.) and 1 U/mL of a neutral protease (Dispase, manufactured by Boehringer-Mannheim Corp.). The mixture of cells and tissues obtained by the reaction was washed three times with DMEM (manufactured by Invitrogen) containing 10% fetal bovine serum (manufactured by Hyclone) and then dissolved in the DMEM containing 10% fetal bovine serum, followed by removing the undigested materials using a nylon mesh of […].
The resulting crude cells extract was cultured overnight on a culture dish of 10 cm, in an incubator of 37° C. using DMEM/F12 medium (manufactured by Invitrogen) containing 10% fetal bovine serum. On the next day, the medium was replaced with DMEM/F12 containing 1% of N-2 additives (manufactured by Invitrogen) and 20 ng/mL of FGF 2 (manufactured by Pepro Tech) and the culturing was started. Once in 3 days, half of the medium was replaced with new DMEM/F12 containing 1% of N-2 additives and 20 ng/mL of FGF 2 and the culturing was continued.
When a small colony consisting of small cells was formed, it was treated with 1% trypsin for 30 seconds to 1 minute, and the cells detached were harvested. The harvested cells were inoculated on a multiple well culture dish (manufactured by Fisher Scientific) which had been coated at room temperature overnight using 10 μg/mL of polyornithine (manufactured by Sigma) and at 37° C. overnight using 5 μg/mL of mouse EHS tumor-derived laminin (Becton Dickinson), and the culturing was continued.
By continuing the above-mentioned culturing, small cells having small protrusion and thickness were concentrated. The cells were used as adult neural stem cells in the above-mentioned test (Test Example 1).

SMILES strings stand for the structures.

For the molecule `CC(C)COC[C@@H](C)[C@H]1CC[C@H]2C3=C(CC[C@]12C)[C@@]1(C)CC[C@H](O)C[C@@H]1C(=O)O3` [Compound 81, (1R,3aR,5aS,7S,9aS,11aR)-7-Hydroxy-1-[(S)-1-isobutyloxypropan-2-yl]-9a,11a-dimethyl-1,2,3,3a,5a,6,7,8,9,9a,11,11a-dodecahydrobenzo[c]cyclopenta[h]chromen-5(10H)-one], the activity at 0.001 µM was no less than 125%.

Turning to `CC(C)CCC[C@@H](C)[C@H]1CC[C@H]2C3=C(CC[C@]12C)[C@@]1(C)CCNC(=O)C[C@@H]1C(=O)O3` [Compound 34, (1R,3aR,5aS,10aS,12aR)-10a,12a-Dimethyl-1-[(R)-6-methylheptan-2-yl]-1,2,3,3a,5a,6,9,10,10a,11,12,12a-dodecahydro-8-azacyclohepta[c]cyclopenta[h]chromen-5,7-dione], the activity at 0.01 µM is no less than 125%.

For the molecule `CC(C)CCC[C@@H](C)[C@H]1CC[C@H]2[C@H]3OC(=O)[C@H]4CC(=O)CC[C@]4(C)[C@H]3CC[C@]12C` [Compound 93, (1R,3aR,3bR,5aS,9aR,9bR,11aR)-9a,11a-Dimethyl-1-[(R)-6-methylheptan-2-yl]dodecahydrobenzo[c]cyclopenta[h]chromen-5,7(3bH,8H)-dione], the activity at 0.1 µM was no less than 125%.

Turning to `C=CC[C@]12C[C@@H](O)CC[C@]1(C)C1=C(OC2=O)[C@@H]2CC[C@H]([C@H](C)CCCC(C)C)[C@@]2(C)CC1` [Compound 30, (3S,5S)-3-hydroxy-5-allyl-7-oxa-8-cholesten-6-one], the activity at 0.1 µM was no less than 125%.

Take `CC(C)CCC[C@@H](C)[C@H]1CC[C@H]2C3=C(CC[C@]12C)[C@@]1(C)CC[C@H](OCc2ccccc2)C[C@@H]1C(=O)O3` [Compound 47, (3S,5S)-3-Benzyloxy-7-oxa-8-cholesten-6-one]: the activity at 0.1 µM was no less than 125%.

As to `CC(C)CCC[C@@H](C)[C@H]1CC[C@H]2C3=C(CC[C@]12C)[C@@]1(C)C[C@@H](O)C(=O)C[C@@H]1C(=O)O3` [Compound 48, (2R,5S)-2-Hydroxy-7-oxa-8-cholesten-3,6-dione], the activity at 0.001 µM was no less than 125%.

In the case of `C=CCOC[C@@H](C)[C@H]1CC[C@H]2C3=C(CC[C@]12C)[C@@]1(C)CC[C@H](OCOC)C[C@@H]1C(=O)O3` [Compound 66, (1R,3aR,5aS,7S,9aS,11aR)-1-[(S)-1-Allyloxypropan-2-yl]-7-methoxymethoxy-9a,11a-dimethyl-1,2,3,3a,5a,6,7,8,9,9a,11,11a-dodecahydrobenzo[c]cyclopenta[h]chromen-5(10H)-one], the activity at 0.001 µM is no less than 125%.

On to `CC(CO)CCC[C@H](C)[C@H]1CC[C@H]2C3=C(CC[C@]12C)[C@@]1(C)CC[C@H](O)C[C@@H]1C(=O)O3` (stereo partly shown) [Compound 79, 7-Oxa-cholest-8(9)-en-6-on-3,26-diol], for which the activity at 0.001 µM was no less than 125%.

`CC(C)CCC[C@H](C)[C@H]1CC[C@H]2C3=C(CC[C@]12C)[C@@]1(C)CCC(=NO)CC1C(=O)O3` (stereo partly drawn) [Compound 3, (S)-3-Hydroxyimino-7-oxa-8-cholesten-6-one]: the activity at 0.001 µM is no less than 125%.

`COCO[C@H]1CC[C@]2(C)C3=C(OC(=O)[C@H]2C1)[C@@H]1CC[C@H]([C@H](C)CCCCCCO)[C@@]1(C)CC3` [Compound 74, (1R,3aR,5aS,7S,9aS,11aR)-1-[(R)-8-Hydroxyoctan-2-yl]-7-methoxymethoxy-9a,11a-dimethyl-1,2,3,3a,5a,6,7,8,9,9a,11,11a-dodecahydrobenzo[c]cyclopenta[h]chromen-5(10H)-one]: the activity at 0.01 µM was no less than 125%.

`CC(C)CNC[C@@H](C)[C@H]1CC[C@H]2C3=C(CC[C@]12C)[C@@]1(C)CC[C@H](O)C[C@@H]1C(=O)O3` [Compound 83, (1R,3aR,5aS,7S,9aS,11aR)-7-Hydroxy-1-[(S)-1-isobutylaminopropan-2-yl]-9a,11a-dimethyl-1,2,3,3a,5a,6,7,8,9,9a,11,11a-dodecahydrobenzo[c]cyclopenta[h]chromen-5(10H)-one]: the activity at 0.001 µM was no less than 125%.

`CC(C)C(=O)CC[C@H](C)[C@H]1CC[C@H]2C3=C(CC[C@]12C)[C@@]1(C)CC[C@H](O)C[C@@H]1C(=O)O3` (stereo in doubt) [Compound 78, 7-Oxa-cholest-8(9)-en-6,24-dion-3-ol]: the activity at 0.1 µM was no less than 125%.

Consider `CC(C)CCC[C@@H](C)[C@H]1CC[C@H]2C3=C(CC[C@]12C)[C@@]1(C)C[C@@H](O)[C@H](O)C[C@@H]1C(=O)O3` [Compound 53, (2R,3R,5S)-2,3-Dihydroxy-7-oxa-8-cholesten-6-one], for which the activity at 0.001 µM was no less than 125%.

As to `COCO[C@H]1CC[C@]2(C)C3=C(OC(=O)[C@H]2C1)[C@@H]1CC[C@H]([C@H](C)CN2CCOCC2)[C@@]1(C)CC3` [Compound 72, (1R,3aR,5aS,7S,9aS,11aR)-7-Methoxymethoxy-9a,11a-dimethyl-1[(S)-1-morpholinopropan-2-yl]-1,2,3,3a,5a,6,7,8,9,9a,11,11a-dodecahydrobenzo[c]cyclopenta[h]chromen-5(10H)-one], the activity at 0.1 µM was no less than 125%.

Consider `CC(CO)CCC[C@H](C)[C@H]1CCC2=C3OC(=O)[C@H]4C[C@@H](O)CC[C@]4(C)[C@H]3CC[C@@]21C` (stereo in doubt) [Compound 90, 7-oxa-cholest-8(14)-en-6-on-3,26-diol], for which the activity at 0.01 µM was no less than 125%.

Take `CC(C)CCC[C@@H](C)[C@H]1CC[C@H]2C3=C(CC[C@]12C)[C@]1(C)[C@H](CC=C[C@@H]1O)C(=O)O3` [Compound 21, (1S,5S)-1-Hydroxy-7-oxa-2,8-cholestadien-6-one]: the activity at 0.1 µM is no less than 125%.

For `CC(C)C(C)CC[C@H](C)[C@H]1CC[C@H]2C3=C(CC[C@]12C)[C@@]1(C)CC[C@H](O)C[C@@H]1C(=O)O3` (stereo in doubt) [Compound 76, 7-Oxa-ergosta-8(9)-en-6-on-3-ol], the activity at 0.01 µM was no less than 125%.

As to `COCO[C@H]1CC[C@]2(C)C3=C(OC(=O)[C@H]2C1)[C@@H]1CC[C@H]([C@H](C)CNCC(C)C)[C@@]1(C)CC3` [Compound 69, (1R,3aR,5aS,7S,9aS,11aR)-1-[(S)-1-Isobutylaminopropan-2-yl]-7-methoxymethoxy-9a,11a-dimethyl-1,2,3,3a,5a,6,7,8,9,9a,11,11a-dodecahydrobenzo[c]cyclopenta[h]chromen-5(10H)-one], the activity at 0.001 µM is no less than 125%.

As for `CC(C)CCC[C@@H](C)[C@H]1CCC2=C3OC(=O)[C@H]4C[C@@H](O)CC[C@]4(C)[C@H]3CC[C@@]21C` [Compound 99, (1R,5aS,7S,9aR,9bR,11aR)-7-Hydroxy-9a,11a-dimethyl-1-[(R)-6-methylheptan-2-yl]-2,3,3,5a,6,7,8,9,9a,9b,10,11,11a-dodecahydrobenzo[c]cyclopenta[h]chromen-5(1H)-one], the activity at 0.001 µM was no less than 125%.

With `CC(C)CCC[C@@H](C)[C@H]1CC[C@@H]2[C@]1(C)CC[C@@]13O[C@@]21OC(=O)[C@H]1CC(=O)CC[C@@]13C` [Compound 94, (5S,8S,9S)-7-Oxa-8,9-epoxy-3,6-cholestadione], the activity at 0.01 µM is no less than 125%.

Regarding `CC(C)CCC[C@@H](C)[C@H]1CC[C@H]2C3=C(CC[C@]12C)[C@@]1(C)CC[C@H](OCCO)C[C@@H]1C(=O)O3` [Compound 31, (3S,5S)-3-(2-Hydroxy)ethoxy-7-oxa-8-cholesten-6-one], the activity at 0.001 µM was no less than 125%.

Regarding `CC(C)CCC[C@@H](C)[C@H]1CC[C@H]2C3=C(CC[C@]12C)[C@]1(C)[C@H](C[C@@H](O)[C@H](O)[C@@H]1O)C(=O)O3` [Compound 32, (1R,2S,3R,5S)-1,2,3-trihydroxy-7-oxa-8-cholesten-6-one], the activity at 0.001 µM is no less than 125%.
